# Assay results reported in patent US20110173718A1, “HERBICIDE TOLERANT PLANTS” (SYNGENTA CROP PROTECTION, INC., priority 2008, published 2011).
# System: weeds
# Assay: Glasshouse weed control by HST/HPPD (mesotrione) mixtures, pre-emergence
# Assay type: in vivo
# Conditions: for colby: Colby synergy score; for % Damage at 14 DAA, 1 g ai ha^−1 mesotrione / % Damage at 14 DAA, no-mesotrione: N = 3
# Method: Weed seeds are planted out in trays containing suitable soil (for example 50% peat, 50% John Innes soil no 3) and grown in the glass house conditions under 24-27° C. day; 18-21° C. night and approximately a 14 h (or longer in UK summer) photoperiod. Humidity is ˜65% and light levels up to 2000 μmol/m^2 at bench level. Trays are sprayed with test chemicals dissolved in water with 0.2-0.25% X-77 surfactant and sprayed from a boom on a suitable track sprayer moving at about 2 mph in a suitable track sprayer (for example a DeVries spray chamber with the nozzle about 2 inches from the plant tops). Spray volume is suitably 500-1000 l/ha. Sprays are carried out both pre-emergence and over small plants at about 7-12 d post-emergence
# Plants are assessed 14 DAT and herbicidal damage is scored on a scale from 0 to 100%. The HST inhibitor compound 2.30 (designated compound A in table 16 and 17), haloxydine (compound 1.1) and compound 2.13 (designated compound AE in tables 16 and 17) are sprayed at rates between 0 and 500 g/ha.
# [1] = ALOMY, 16 g/ha + mesotrione 1 g ai/ha
# [2] = ALOMY, 31 g/ha + mesotrione 1 g ai/ha
# [3] = ALOMY, 63 g/ha + mesotrione 1 g ai/ha
# [4] = ALOMY, 125 g/ha + mesotrione 1 g ai/ha
# [5] = ALOMY, 250 g/ha + mesotrione 1 g ai/ha
# [6] = ALOMY, 500 g/ha + mesotrione 1 g ai/ha
# [7] = AMARE, 16 g/ha + mesotrione 1 g ai/ha
# [8] = AMARE, 31 g/ha + mesotrione 1 g ai/ha
# [9] = AMARE, 63 g/ha + mesotrione 1 g ai/ha
# [10] = AMARE, 125 g/ha + mesotrione 1 g ai/ha
# [11] = AMARE, 250 g/ha + mesotrione 1 g ai/ha
# [12] = AMARE, 500 g/ha + mesotrione 1 g ai/ha
# [13] = ECHCG, 16 g/ha + mesotrione 1 g ai/ha
# [14] = ECHCG, 31 g/ha + mesotrione 1 g ai/ha
# [15] = ECHCG, 63 g/ha + mesotrione 1 g ai/ha
# [16] = ECHCG, 125 g/ha + mesotrione 1 g ai/ha
# [17] = ECHCG, 250 g/ha + mesotrione 1 g ai/ha
# [18] = ECHCG, 500 g/ha + mesotrione 1 g ai/ha
# [19] = IPOHE, 16 g/ha + mesotrione 1 g ai/ha
# [20] = IPOHE, 31 g/ha + mesotrione 1 g ai/ha
# [21] = IPOHE, 63 g/ha + mesotrione 1 g ai/ha
# [22] = IPOHE, 125 g/ha + mesotrione 1 g ai/ha
# [23] = IPOHE, 250 g/ha + mesotrione 1 g ai/ha
# [24] = IPOHE, 500 g/ha + mesotrione 1 g ai/ha
# [25] = SETFA, 16 g/ha + mesotrione 1 g ai/ha
# [26] = SETFA, 31 g/ha + mesotrione 1 g ai/ha
# [27] = SETFA, 63 g/ha + mesotrione 1 g ai/ha
# [28] = SETFA, 125 g/ha + mesotrione 1 g ai/ha
# [29] = SETFA, 250 g/ha + mesotrione 1 g ai/ha
# [30] = SETFA, 500 g/ha + mesotrione 1 g ai/ha
# [31] = SOLNI, 16 g/ha + mesotrione 1 g ai/ha
# [32] = SOLNI, 31 g/ha + mesotrione 1 g ai/ha
# [33] = SOLNI, 63 g/ha + mesotrione 1 g ai/ha
# [34] = SOLNI, 125 g/ha + mesotrione 1 g ai/ha
# [35] = SOLNI, 250 g/ha + mesotrione 1 g ai/ha
# [36] = SOLNI, 500 g/ha + mesotrione 1 g ai/ha
structure (smiles),measurement,setting,value
CC(C)C(=O)Oc1c(-c2c(F)ccc(Br)c2Cl)c(=O)n(CC(F)F)c2nccnc12 [Compound 2.30],colby,[1],0%
same,"% Damage at 14 DAA, 1 g ai ha^−1 mesotrione",[1],0%
same,"% Damage at 14 DAA, no-mesotrione","ALOMY, 16 g/ha",0%
same,colby,[2],0%
same,"% Damage at 14 DAA, 1 g ai ha^−1 mesotrione",[2],0%
same,"% Damage at 14 DAA, no-mesotrione","ALOMY, 31 g/ha",0%
same,colby,[3],0%
same,"% Damage at 14 DAA, 1 g ai ha^−1 mesotrione",[3],0%
same,"% Damage at 14 DAA, no-mesotrione","ALOMY, 63 g/ha",0%
same,colby,[4],0%
same,"% Damage at 14 DAA, 1 g ai ha^−1 mesotrione",[4],0%
same,"% Damage at 14 DAA, no-mesotrione","ALOMY, 125 g/ha",0%
same,colby,[5],−2%
same,"% Damage at 14 DAA, 1 g ai ha^−1 mesotrione",[5],0%
same,"% Damage at 14 DAA, no-mesotrione","ALOMY, 250 g/ha",2%
same,colby,[6],10%
same,"% Damage at 14 DAA, 1 g ai ha^−1 mesotrione",[6],20%
same,"% Damage at 14 DAA, no-mesotrione","ALOMY, 500 g/ha",10%
same,colby,[7],−2%
same,"% Damage at 14 DAA, 1 g ai ha^−1 mesotrione",[7],0%
same,"% Damage at 14 DAA, no-mesotrione","AMARE, 16 g/ha",0%
same,colby,[8],−2%
same,"% Damage at 14 DAA, 1 g ai ha^−1 mesotrione",[8],0%
same,"% Damage at 14 DAA, no-mesotrione","AMARE, 31 g/ha",0%
same,colby,[9],8%
same,"% Damage at 14 DAA, 1 g ai ha^−1 mesotrione",[9],10%
same,"% Damage at 14 DAA, no-mesotrione","AMARE, 63 g/ha",0%
same,colby,[10],29%
same,"% Damage at 14 DAA, 1 g ai ha^−1 mesotrione",[10],40%
same,"% Damage at 14 DAA, no-mesotrione","AMARE, 125 g/ha",10%
same,colby,[11],9%
same,"% Damage at 14 DAA, 1 g ai ha^−1 mesotrione",[11],47%
same,"% Damage at 14 DAA, no-mesotrione","AMARE, 250 g/ha",37%
same,colby,[12],16%
same,"% Damage at 14 DAA, 1 g ai ha^−1 mesotrione",[12],90%
same,"% Damage at 14 DAA, no-mesotrione","AMARE, 500 g/ha",73%
same,colby,[13],0%
same,"% Damage at 14 DAA, 1 g ai ha^−1 mesotrione",[13],0%
same,"% Damage at 14 DAA, no-mesotrione","ECHCG, 16 g/ha",0%
same,colby,[14],0%
same,"% Damage at 14 DAA, 1 g ai ha^−1 mesotrione",[14],0%
same,"% Damage at 14 DAA, no-mesotrione","ECHCG, 31 g/ha",0%
same,colby,[15],0%
same,"% Damage at 14 DAA, 1 g ai ha^−1 mesotrione",[15],0%
same,"% Damage at 14 DAA, no-mesotrione","ECHCG, 63 g/ha",0%
same,colby,[16],−2%
same,"% Damage at 14 DAA, 1 g ai ha^−1 mesotrione",[16],0%
same,"% Damage at 14 DAA, no-mesotrione","ECHCG, 125 g/ha",2%
same,colby,[17],0%
same,"% Damage at 14 DAA, 1 g ai ha^−1 mesotrione",[17],5%
same,"% Damage at 14 DAA, no-mesotrione","ECHCG, 250 g/ha",5%
same,colby,[18],8%
same,"% Damage at 14 DAA, 1 g ai ha^−1 mesotrione",[18],27%
same,"% Damage at 14 DAA, no-mesotrione","ECHCG, 500 g/ha",18%
same,colby,[19],0%
same,"% Damage at 14 DAA, 1 g ai ha^−1 mesotrione",[19],0%
same,"% Damage at 14 DAA, no-mesotrione","IPOHE, 16 g/ha",0%
same,colby,[20],0%
same,"% Damage at 14 DAA, 1 g ai ha^−1 mesotrione",[20],0%
same,"% Damage at 14 DAA, no-mesotrione","IPOHE, 31 g/ha",0%
same,colby,[21],0%
same,"% Damage at 14 DAA, 1 g ai ha^−1 mesotrione",[21],0%
same,"% Damage at 14 DAA, no-mesotrione","IPOHE, 63 g/ha",0%
same,colby,[22],0%
same,"% Damage at 14 DAA, 1 g ai ha^−1 mesotrione",[22],0%
same,"% Damage at 14 DAA, no-mesotrione","IPOHE, 125 g/ha",0%
same,colby,[23],−2%
same,"% Damage at 14 DAA, 1 g ai ha^−1 mesotrione",[23],0%
same,"% Damage at 14 DAA, no-mesotrione","IPOHE, 250 g/ha",2%
same,colby,[24],13%
same,"% Damage at 14 DAA, 1 g ai ha^−1 mesotrione",[24],17%
same,"% Damage at 14 DAA, no-mesotrione","IPOHE, 500 g/ha",3%
same,colby,[25],0%
same,"% Damage at 14 DAA, 1 g ai ha^−1 mesotrione",[25],0%
same,"% Damage at 14 DAA, no-mesotrione","SETFA, 16 g/ha",0%
same,colby,[26],0%
same,"% Damage at 14 DAA, 1 g ai ha^−1 mesotrione",[26],0%
same,"% Damage at 14 DAA, no-mesotrione","SETFA, 31 g/ha",0%
same,colby,[27],0%
same,"% Damage at 14 DAA, 1 g ai ha^−1 mesotrione",[27],0%
same,"% Damage at 14 DAA, no-mesotrione","SETFA, 63 g/ha",0%
same,colby,[28],−2%
same,"% Damage at 14 DAA, 1 g ai ha^−1 mesotrione",[28],0%
same,"% Damage at 14 DAA, no-mesotrione","SETFA, 125 g/ha",2%
same,colby,[29],3%
same,"% Damage at 14 DAA, 1 g ai ha^−1 mesotrione",[29],7%
same,"% Damage at 14 DAA, no-mesotrione","SETFA, 250 g/ha",3%
same,colby,[30],10%
same,"% Damage at 14 DAA, 1 g ai ha^−1 mesotrione",[30],32%
same,"% Damage at 14 DAA, no-mesotrione","SETFA, 500 g/ha",22%
same,colby,[31],−17%
same,"% Damage at 14 DAA, 1 g ai ha^−1 mesotrione",[31],0%
same,"% Damage at 14 DAA, no-mesotrione","SOLNI, 16 g/ha",0%
same,colby,[32],−10%
same,"% Damage at 14 DAA, 1 g ai ha^−1 mesotrione",[32],7%
same,"% Damage at 14 DAA, no-mesotrione","SOLNI, 31 g/ha",0%
same,colby,[33],−13%
same,"% Damage at 14 DAA, 1 g ai ha^−1 mesotrione",[33],3%
same,"% Damage at 14 DAA, no-mesotrione","SOLNI, 63 g/ha",0%
same,colby,[34],−11%
same,"% Damage at 14 DAA, 1 g ai ha^−1 mesotrione",[34],8%
same,"% Damage at 14 DAA, no-mesotrione","SOLNI, 125 g/ha",2%
same,colby,[35],11%
same,"% Damage at 14 DAA, 1 g ai ha^−1 mesotrione",[35],30%
same,"% Damage at 14 DAA, no-mesotrione","SOLNI, 250 g/ha",3%
same,colby,[36],21%
same,"% Damage at 14 DAA, 1 g ai ha^−1 mesotrione",[36],75%
same,"% Damage at 14 DAA, no-mesotrione","SOLNI, 500 g/ha",45%
